Results taken from US8101766B2, “Crystalline form of a biphenyl compound” (Theravance, Inc., priority 2004, dated 2012).
pKi: −log10 of the molar value.

Molecular target: T1, cM5 receptor (Pan troglodytes, UniProt Q5IS53)
T1 construct: expressed in transfected cells
T1 sequence (Q5IS53 1-532): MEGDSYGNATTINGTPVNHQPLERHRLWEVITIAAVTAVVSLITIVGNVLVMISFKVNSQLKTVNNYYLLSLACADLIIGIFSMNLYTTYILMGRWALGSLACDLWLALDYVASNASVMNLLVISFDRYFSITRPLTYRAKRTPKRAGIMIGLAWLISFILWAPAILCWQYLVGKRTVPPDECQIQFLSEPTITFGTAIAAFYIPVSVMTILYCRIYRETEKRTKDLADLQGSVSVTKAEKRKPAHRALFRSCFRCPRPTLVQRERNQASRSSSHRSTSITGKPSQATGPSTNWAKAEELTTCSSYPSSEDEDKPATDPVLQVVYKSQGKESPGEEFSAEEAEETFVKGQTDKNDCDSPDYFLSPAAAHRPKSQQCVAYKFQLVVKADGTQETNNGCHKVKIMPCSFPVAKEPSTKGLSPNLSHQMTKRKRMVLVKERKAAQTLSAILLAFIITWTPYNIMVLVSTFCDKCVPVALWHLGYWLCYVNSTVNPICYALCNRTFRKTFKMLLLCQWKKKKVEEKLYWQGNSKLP
Assay: Blockade of agonist-mediated calcium release via FLIPR assay (cM5)
Assay type: cell-based, chimpanzee
Conditions: CHO cells stably expressing cM5
Excerpt: B. Blockade of Agonist-Mediated Calcium Release Via FLIPR Assays
Muscarinic receptor subtypes (M1, M3 and M5 receptors), which couple to Gq proteins, activate the phospholipase C (PLC) pathway upon agonist binding to the receptor. As a result, activated PLC hydrolyzes phosphatyl inositol diphosphate (PIP2) to diacylglycerol (DAG) and phosphatidyl-1,4,5-triphosphate (IP3), which in turn generates calcium release from intracellular stores, i.e., endoplasmic and sarcoplasmic reticulum. […] This fluorescence event is measured in real time by the FLIPR, which detects the change in fluorescence from a monolayer of cells cloned with human M1 and M3, and chimpanzee M5 receptors. Antagonist potency can be determined by the ability of antagonists to inhibit agonist-mediated increases in intracellular calcium. […]
To determine antagonist potency, the dose-dependent stimulation of intracellular Ca^2+ release for oxotremorine was first determined so that antagonist potency can later be measured against oxotremorine stimulation at an EC90 concentration. […]
The parameters used for the FLIPR were: exposure length of 0.4 seconds, laser strength of 0.5 watts, excitation wavelength of 488 nm, and emission wavelength of 550 nm. Baseline was determined by measuring the change in fluorescence for 10 seconds prior to addition of agonist. […]

COc1cc(NC(=O)CCN2CCC(OC(=O)Nc3ccccc3-c3ccccc3)CC2)c(Cl)cc1CNC[C@H](O)c1ccc(O)c2[nH]c(=O)ccc12 [compound of formula I, biphenyl-2-ylcarbamic acid 1-[2-(2-chloro-4-{[(R)-2-hydroxy-2-(8-hydroxy-2-oxo-1,2-dihydroquinolin-5-yl)ethylamino]methyl}-5-methoxyphenylcarbamoyl)ethyl]piperidin-4-yl ester]
pKi: > 8.00
